Results: patent US8686150B2 (Sanofi, priority 2011, dated 2014)

target: T1, human full-length recombinant PKC βII (Homo sapiens, UniProt P05771); experiment: Determination of PKC βII inhibition (Caliper mobility-shift kinase assay, Fluorescein-RFARKGSLRQKNV peptide substrate); assay type: biochemical; details: example compounds at a final concentration of 1.14 μM (±0.15 μM)
T1 construct: Active human full-length recombinant PKC βII; purchased Invitrogen GmbH, Darmstadt, Germany
How it was run: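 Compounds were tested at 1.14 μM final. Enzyme was activated by PS, DAG and CaCl2 in Hepes pH 7.4 with MgCl2, with substrate 3 μM and ATP 120 μM as pre-mix concentrations. After 60 min at 32 °C and an EDTA stop, Caliper separation gave fractional turnover, which was normalised to no-compound and no-enzyme controls.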

T1 sequence (P05771 1-673 isoform P05771-2): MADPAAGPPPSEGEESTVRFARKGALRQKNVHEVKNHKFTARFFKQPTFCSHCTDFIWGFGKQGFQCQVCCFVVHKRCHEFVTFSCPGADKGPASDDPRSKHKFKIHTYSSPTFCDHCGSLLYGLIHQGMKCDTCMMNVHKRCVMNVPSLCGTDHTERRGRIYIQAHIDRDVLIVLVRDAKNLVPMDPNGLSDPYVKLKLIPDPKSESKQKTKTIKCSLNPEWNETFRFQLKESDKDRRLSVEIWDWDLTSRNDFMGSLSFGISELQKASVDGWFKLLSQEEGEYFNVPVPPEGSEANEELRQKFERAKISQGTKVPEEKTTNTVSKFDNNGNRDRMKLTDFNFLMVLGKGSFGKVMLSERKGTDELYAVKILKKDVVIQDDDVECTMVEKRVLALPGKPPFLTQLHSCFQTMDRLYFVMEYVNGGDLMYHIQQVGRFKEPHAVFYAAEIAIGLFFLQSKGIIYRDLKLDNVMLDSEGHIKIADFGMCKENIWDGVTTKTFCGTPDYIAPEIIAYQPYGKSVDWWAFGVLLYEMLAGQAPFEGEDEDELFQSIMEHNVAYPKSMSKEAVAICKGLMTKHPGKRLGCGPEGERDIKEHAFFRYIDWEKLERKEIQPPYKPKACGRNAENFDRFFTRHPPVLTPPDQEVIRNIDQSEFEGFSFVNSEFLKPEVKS

| SMILES | inhibition at 1.14 µM |
| --- | --- |
| Cc1n[nH]c2nc(-c3ccc(O)cc3F)cc(C(=O)N3CCNCC34CCC4)c12 [Example 439, (5,8-Diaza-spiro[3.5]non-5-yl)-[6-(2-fluoro-4-hydroxy-phenyl)-3-methyl-1H-pyrazolo[3,4-b]pyridin-4-yl]-methanone] | 99% |
| Cc1n[nH]c2nc(-c3ccc(O)cc3F)cc(C(=O)NC3(c4ccccc4)CCNCC3)c12 [Example 440, 6-(2-Fluoro-4-hydroxy-phenyl)-3-methyl-1H-pyrazolo[3,4-b]pyridine-4-carboxylic acid (4-phenyl-piperidin-4-yl)-amide] | 90% |
| CCCC1CN(C(=O)c2cc(-c3ccc(O)cc3F)nc3[nH]nc(C)c23)C(CCC)CN1 (stereo not drawn) [Example 441, (2,5-Dipropyl-piperazin-1-yl)-[6-(2-fluoro-4-hydroxy-phenyl)-3-methyl-1H-pyrazolo[3,4-b]pyridin-4-yl]-methanone] | 96% |
| Cc1n[nH]c2nc(-c3ccc(O)cc3F)cc(C(=O)N3CCN[C@H]4CCCC[C@@H]43)c12 [Example 443, [6-(2-Fluoro-4-hydroxy-phenyl)-3-methyl-1H-pyrazolo[3,4-b]pyridin-4-yl]-(4aS,8aS)-octahydro-quinoxalin-1-yl-methanone] | 97% |
| Cc1n[nH]c2nc(-c3ccc(O)cc3F)cc(C(=O)N3C(C)CNCC3C)c12 (stereo not drawn) [Example 444, (2,6-Dimethyl-piperazin-1-yl)-[6-(2-fluoro-4-hydroxy-phenyl)-3-methyl-1H-pyrazolo[3,4-b]pyridin-4-yl]-methanone] | 99% |
| CCC1CN(C(=O)c2cc(-c3ccc(O)cc3F)nc3[nH]nc(C)c23)C(CC)CN1 (stereo not drawn) [Example 445, (2,5-Diethyl-piperazin-1-yl)-[6-(2-fluoro-4-hydroxy-phenyl)-3-methyl-1H-pyrazolo[3,4-b]pyridin-4-yl]-methanone] | 99% |
| CC[C@@H]1CN(C(=O)c2cc(-c3ccc(O)cc3F)nc3[nH]nc(C)c23)[C@@H](C)CN1 [Example 446, ((2S,5R)-5-Ethyl-2-methyl-piperazin-1-yl)-[6-(2-fluoro-4-hydroxy-phenyl)-3-methyl-1H-pyrazolo[3,4-b]pyridin-4-yl)-methanone] | 98% |
| CCC[C@@H]1CN(C(=O)c2cc(-c3ccc(O)cc3F)nc3[nH]nc(C)c23)[C@@H](C)CN1 [Example 448, [6-(2-Fluoro-4-hydroxy-phenyl)-3-methyl-1H-pyrazolo[3,4-b]pyridin-4-yl]-((2S,5R)-2-methyl-5-propyl-piperazin-1-yl)-methanone] | 99% |
| CCC1(C)CNC(C)(C)CN1C(=O)c1cc(-c2ccc(O)cc2F)nc2[nH]nc(C)c12 (stereo not drawn) [Example 449, (2-Ethyl-2,5,5-trimethyl-piperazin-1-yl)-[6-(2-fluoro-4-hydroxy-phenyl)-3-methyl-1H-pyrazolo[3,4-b]pyridin-4-yl]-methanone] | 99% |
| CCC1(CC)CNC(C)(C)CN1C(=O)c1cc(-c2ccc(O)cc2F)nc2[nH]nc(C)c12 [Example 450, (2,2-Diethyl-5,5-dimethyl-piperazin-1-yl)-[6-(2-fluoro-4-hydroxy-phenyl)-3-methyl-1H-pyrazolo[3,4-b]pyridin-4-yl]-methanone] | 100% |
| Cc1n[nH]c2nc(-c3ccc(O)cc3F)cc(C(=O)N3CC4(CCCC4)NCC3(C)C)c12 [Example 451, (8,8-Dimethyl-6,9-diaza-spiro[4.5]dec-9-yl)-[6-(2-fluoro-4-hydroxy-phenyl)-3-methyl-1H-pyrazolo[3,4-b]pyridin-4-yl]-methanone] | 104% |
| Cc1n[nH]c2nc(-c3ccc(O)cc3F)cc(C(=O)N3C[C@@H](C)N(Cc4ccccn4)C[C@@H]3C)c12 [Example 452, ((2S,5R)-2,5-Dimethyl-4-pyridin-2-ylmethyl-piperazin-1-yl)-[6-(2-fluoro-4-hydroxy-phenyl)-3-methyl-1H-pyrazolo[3,4-b]pyridin-4-yl]-methanone] | 83% |
